Results reported in patent US6664260B2, “Heterocyclic ether substituted imidazoquinolines” (3M Innovative Properties Company, priority 2000, dated 2003).
Structures can show the parent of a compound that is named as a salt.

What was measured:
[1] = system: tumor necrosis factor (α); experiment: Cytokine Induction in Human Cells: tumor necrosis factor (α) secreted by PBMCs, ELISA; format: cell-based; set-up: key to Lowest Effective Concentration (μM) Tumor Necrosis Factor: A “*” indicates that no induction was seen at any of the tested concentrations; generally the highest tested concentration was 10 or 30 μM; conditions: incubated 18 to 24 hours, lowest concentration found to induce tumor necrosis factor; for minimal effective concentration: PBMC
From the text: (§1) An in vitro human blood cell system is used to assess cytokine induction. Activity is based on the measurement of interferon and tumor necrosis factor (α) (IFN and TNF, respectively) secreted into culture media as described by Testerman et. al. In “Cytokine Induction by the Immunomodulators Imiquimod and S-27609”, Journal of Leukocyte Biology, 58, 365-372 (September, 1995).
(§2) Whole blood from healthy human donors is collected by venipuncture into EDTA vacutainer tubes. Peripheral blood mononuclear cells (PBMCs) are separated from whole blood by density gradient centrifugation using Histopaque®-1077. The PBMCs are washed twice with Hank's Balanced Salts Solution and then are suspended at 3-4×10^6 cells/mL in RPMI complete. The PBMC suspension is added to 48 well flat bottom sterile tissue culture plates (Costar, Cambridge, Mass. or Becton Dickinson Labware, Lincoln Park, N.J.) containing an equal volume of RPMI complete media containing test compound.
(§3) The compounds are solubilized in dimethyl sulfoxide (DMSO). The DMSO concentration should not exceed a final concentration of 1% for addition to the culture wells
(§4) The solution of test compound is added at 60 μM to the first well containing RPMI complete and serial 3 fold dilutions are made in the wells. The PBMC suspension is then added to the wells in an equal volume, bringing the test compound concentrations to the desired range (0.12 to 30 μM). The final concentration of PBMC suspension is 1.5-2×10^6 cells/mL. The plates are covered with sterile plastic lids, mixed gently and then incubated for 18 to 24 hours at 37° C. in a 5% carbon dioxide atmosphere.
(§5) Following incubation the plates are centrifuged for 5-10 minutes at 1000 rpm (˜200×g) at 4° C. The cell-free culture supernatant is removed with a sterile polypropylene pipet and transferred to sterile polypropylene tubes. Samples are maintained at −30 to −70° C. until analysis. The samples are analyzed for interferon (α) and for tumor necrosis factor (α) by ELISA.
Tumor necrosis factor (α) (TNF)concentration is determined using ELISA kits available from Genzyme, Cambridge, Mass.; R&D Systems, Minneapolis, Minn.; or Pharmingen, San Diego, Calif. Results are expressed in pg/mL.
(§6) The table below lists the lowest concentration found to induce interferon and the lowest concentration found to induce tumor necrosis factor for each compound.

interferon (α) = experiment: Cytokine Induction in Human Cells: interferon (α) secreted by PBMCs, ELISA; format: cell-based; set-up: key to Lowest Effective Concentration (μM) Interferon: A “*” indicates that no induction was seen at any of the tested concentrations; generally the highest tested concentration was 10 or 30 μM; conditions: incubated 18 to 24 hours, lowest concentration found to induce interferon; for minimal effective concentration: PBMC
From the text: as §1, §2, §3, §4, §5
Interferon (α) concentration is determined by ELISA using a Human Multi-Species kit from PBL Biomedical Laboratories, New Brunswick, N.J. Results are expressed in pg/mL.
as §6

SMILES	melting point	minimal effective concentration [1]	minimal effective concentration (interferon (α))	Lowest Effective Concentration (μM) Tumor Necrosis Factor [1]	Lowest Effective Concentration (μM) Interferon (interferon (α))
Nc1nc2ccccc2c2c1ncn2CCOCc1cn(Cc2ccccc2)nn1 (as salt: hydrochloride) [Example 10, 1-{2-[(1-Benzyl-1H-1,2,3-triazol-4-yl)methoxy]ethyl}-1H-imidazo[4,5-c]quinoline-4-amine hydrochloride]	209 to 211 °C	–	–	–	–
Nc1nc2ccccc2c2c1ncn2CCOCc1cccnc1 (as salt: hydrochloride) [Example 13, 1-[2-(Pyridin-3-ylmethoxy)ethyl]-1H-imidazo[4,5-c]quinolin-4-amine Hydrochloride]	229 to 231 °C	–	–	–	–
Nc1nc2ccccc2c2c1ncn2CCOCC#Cc1ncccn1 (as salt: trifluoroacetate) [Example 17, 1-(2-{[3-(Pyrimidin-2-yl)-2-propynyl]oxy}ethyl)-1H-imidazo[4,5-c]quinolin-4-amine trifluoroacetate]	214 to 215 °C	–	–	–	–
Nc1nc2ccccc2c2c1ncn2CCOCC#Cc1ccncc1 (as salt: trifluoroacetate) [Example 18, 1-(2-{[3-(Pyrid-4-yl)-2-propynyl]oxy}ethyl)-1H-imidazo[4,5-c]quinolin-4-amine bis(trifluoroacetate)]	135 °C (dec.)	–	–	–	–
Nc1nc2ccccc2c2c1ncn2CCOCC#Cc1ccoc1 (as salt: trifluoroacetate) [Example 19, 1-(2-{[3-(Fur-3-yl)-2-propynyl]oxy}ethyl)-1H-imidazo[4,5-c]quinolin-4-amine trifluoroacetate]	160 to 162 °C	–	–	–	–
Nc1nc2ccccc2c2c1ncn2CCOCC#Cc1ccccn1 (as salt: trifluoroacetate) [Example 21, 1-(2-{[3-(Pyrid-2-yl)-2-propynyl]oxy}ethyl)-1H-imidazo[4,5-c]quinolin-4-amine trifluoroacetate]	129 to 131 °C	–	–	–	–
Nc1nc2ccccc2c2c1ncn2CCOCC#Cc1cncc2ccccc12 [Example 1, 1-(2-{[3-(Isoquinolin-4-yl)-2-propynyl]oxy}ethyl)-1H-imidazo[4,5-c]quinolin-4-amine]	–	3.33 µM	0.12 µM	–	–
Nc1nc2ccccc2c2c1ncn2CCOCC#Cc1nccs1 [Example 2, 1-(2-{[3-(1,3-Thiazol-2-yl)-2-propynyl]oxy}ethyl)-1H-imidazo[4,5-c]quinolin-4-amine]	157 to 159 °C	10 µM	0.37 µM	–	–
Nc1nc2ccccc2c2c1ncn2CCOCCCc1cn[nH]c1 [Example 3, 1-{2-[3-(1H-Pyrazol-4-yl)propoxy]ethyl}-1H-imidazo[4,5-c]quinolin-4-amine]	–	–	0.04 µM	*	–
Nc1nc2ccccc2c2c1ncn2CCOCCCc1ncccn1 [Example 4, 1-[2-(3-Pyrimidin-2-ylpropoxy)ethyl]-1H-imidazo[4,5-c]quinolin-4-amine]	126 to 127 °C	–	3.33 µM	*	–
Nc1nc2ccccc2c2c1ncn2CCOCCCc1ccncc1 [Example 5, 1-[2-(3-Pyridin-4-ylpropoxy)ethyl]-1H-imidazo[4,5-c]quinolin-4-amine]	160 to 162 °C	0.37 µM	0.04 µM	–	–
Nc1nc2ccccc2c2c1ncn2CCOCCCc1cccnc1 [Example 8, 1-[2-(3-Pyridin-3-ylpropoxy)ethyl]-1H-imidazo[4,5-c]quinolin-4-amine Bis(trifluoroacetate)]	–	0.12 µM	0.04 µM	–	–
Nc1nc2ccccc2c2c1ncn2CCOCCCc1cncnc1 [Example 9, 1-[2-(3-Pyrimidin-5-ylpropoxy)ethyl]-1H-imidazo[4,5-c]quinolin-4-amine]	–	3.33 µM	0.12 µM	–	–
Nc1nc2ccccc2c2c1ncn2CCOCc1cn(Cc2ccccc2)nn1 [Example 10, 1-{2-[(1-Benzyl-1H-1,2,3-triazol-4-yl)methoxy]ethyl}-1H-imidazo[4,5-c]quinoline-4-amine hydrochloride]	–	1.11 µM	1.11 µM	–	–
Nc1nc2ccccc2c2c1ncn2CCOCc1cc2ccccc2o1 [Example 12, 1-[2-(Benzo[b]furan-2-ylmethoxy)ethyl]-1H-imidazo[4,5-c]quinolin-4-amine]	–	–	1.11 µM	*	–
Nc1nc2ccccc2c2c1ncn2CCOCc1cccnc1 [Example 13, 1-[2-(Pyridin-3-ylmethoxy)ethyl]-1H-imidazo[4,5-c]quinolin-4-amine Hydrochloride]	–	1.11 µM	0.37 µM	–	–
Nc1nc2ccccc2c2c1ncn2CCOCC#Cc1ncccn1 [Example 17, 1-(2-{[3-(Pyrimidin-2-yl)-2-propynyl]oxy}ethyl)-1H-imidazo[4,5-c]quinolin-4-amine trifluoroacetate]	–	0.37 µM	0.37 µM	–	–
Nc1nc2ccccc2c2c1ncn2CCOCC#Cc1ccncc1 [Example 18, 1-(2-{[3-(Pyrid-4-yl)-2-propynyl]oxy}ethyl)-1H-imidazo[4,5-c]quinolin-4-amine bis(trifluoroacetate)]	–	10 µM	0.37 µM	–	–
Nc1nc2ccccc2c2c1ncn2CCOCC#Cc1ccoc1 [Example 19, 1-(2-{[3-(Fur-3-yl)-2-propynyl]oxy}ethyl)-1H-imidazo[4,5-c]quinolin-4-amine trifluoroacetate]	–	3.33 µM	0.12 µM	–	–
Nc1nc2ccccc2c2c1ncn2CCOCC#Cc1csc(C=O)c1 [Example 20, 4-{3-[2-(4-Amino-1H-imidazo[4,5-c]quinolin-1-yl)ethoxy]-propyn-1-yl}thiophen-2-ylcarboxaldehyde trifluoroacetate]	–	3.33 µM	0.12 µM	–	–
Nc1nc2ccccc2c2c1ncn2CCOCC#Cc1ccccn1 [Example 21, 1-(2-{[3-(Pyrid-2-yl)-2-propynyl]oxy}ethyl)-1H-imidazo[4,5-c]quinolin-4-amine trifluoroacetate]	–	10 µM	1.11 µM	–	–
CC(Cn1cnc2c(N)nc3ccccc3c21)OCC1CCCO1 (centres unmarked) [Example 22]	–	10 µM	1.11 µM	–	–
CC(C)C(COc1ncccc1[N+](=O)[O-])n1cnc2c(N)nc3ccccc3c21 (centres unmarked) [Example 23]	–	–	1.11 µM	*	–
CC(C)C(COCc1csc2ccc(Cl)cc12)n1cnc2c(N)nc3ccccc3c21 (centres unmarked) [Example 24]	–	–	–	*	*
CC(Cn1cnc2c(N)nc3ccccc3c21)OCc1csc2ccc(Cl)cc12 (centres unmarked) [Example 25]	–	–	10 µM	*	–
CC(Cn1cnc2c(N)nc3ccccc3c21)Oc1ncccc1[N+](=O)[O-] (centres unmarked) [Example 26]	–	–	1.11 µM	*	–
CC(C)C(COc1ccccn1)n1cnc2c(N)nc3ccccc3c21 (centres unmarked) [Example 27, 1-{2-Methyl-1-[(pyrid-2-yloxy)methyl]propyl}-1H-imidazo[4,5-c]quinoline-4-amine trifluoroacetate]	–	–	1.11 µM	*	–
CC(Cn1cnc2c(N)nc3ccccc3c21)Oc1ccc2[nH]c3ccccc3c2c1 (centres unmarked) [Example 29, 1-[2-(9H-carbazol-3-yloxy)propyl]-1H-imidazo[4,5-c]quinolin-4-amine trifluoroacetate]	–	–	1.11 µM	*	–
CCCCc1nc2c(N)nc3ccccc3c2n1CCOCCCc1cccnc1 [Example 35, 2-Butyl-1-[2-(3-pyridin-3-ylpropoxy)ethyl]-1H-imidazo[4,5-c]quinoline-4-amine]	–	0.12 µM	0.01 µM	–	–
Cc1nc2c(N)nc3c(c2n1CCOCCCc1cccnc1)CCCC3 [Example 37, 2-methyl-1-[2-(3-pyridin-3-ylpropoxy)ethyl]-6,7,8,9-tetrahydro-1H-imidazo[4,5-c]quinolin-4-amine]	140 to 141 °C	–	–	–	–
